From patent US20220265614A1, “TREATMENT COMPRISING FXR AGONISTS” (Novartis AG, priority 2019, published 2022)

What was measured:
human hepatocytes = test: In vitro human hepatocytes treated with FXR agonists: LDL uptake; assay type: cell-based; settings: FIG. 5
From the text: In addition, FXR agonist treatments have been associated with lipid abnormalities, including increases in peripheral LDL (Neuschwander-Tetri et al, The Lancet 2015; 385: 956-965). The reduction of the bile acid pathway by FXR agonists could lead to intracytoplasmic increase in cholesterol in the hepatocytes. Increase cholesterol in hepatocytes is associated with a counter mechanism of decrease LDL receptor on the surface of the cells (Goldstein et al Circulation. 1987 September;76(3):504-7). Such a decrease in the LDL receptor on the surface of the hepatocytes will ultimately result in an increase in circulating LDL; the phenotype observed in the clinics. […] To mitigate the increase in circulating LDL, it is proposed to administer a FXR agonist to the subjects in need thereof in the evening (e.g. from about 6 pm to about 12 pm, preferably from about 8 pm to about 11 pm, preferably around 9 pm) to reduce the impact of the FXR agonist on circulating LDL.
To mitigate the increase in peripheric LDL, we hypothesize that treating the subjects in the evening (from about 6 pm to about 12 pm, e.g. from about 8 pm to about 11 pm, preferably around 9 pm) would be reduce the impact of the drug on LDL. […]

NASH patients [1] = settings: cited from earlier work
[2] = system: patients with biopsy-proven NASH and fibrosis stages 2-3; test: FLIGHT-FXR (NCT02855164) Part C interim analysis at week 12; assay type: in vivo, human
From the text: Prespecified endpoints assessed at week 12 included overall safety and changes in alanine aminotransferase (ALT), hepatic fat fraction (HFF), gamma glutamyl transferase (GGT), and body weight.

NASH patients [3] = test: Parts A and B of study CLJN452A2202 in NASH patients, 12 weeks
[4] = higher doses (140 μg, 200 μg), after 12 weeks of treatment
[5] = all doses (10, 30, 60 and 90 μg), 12 weeks

For `CC[C@H]1[C@@H](O)[C@@H]2[C@H](CC[C@]3(C)[C@@H]([C@H](C)CCC(=O)O)CC[C@@H]23)[C@@]2(C)CC[C@@H](O)C[C@@H]12` [obeticholic acid, 6α-ethyl-chenodeoxycholic acid], the “LDL uptake by hepatocytes” value (human hepatocytes) is given as “reduce the LDL uptake by hepatocytes in a dose dependent manner”, the “adverse effects of long term administration: pruritus” value (NASH patients [1]) is given as “most common adverse effect” and the “lipid abnormalities: low density lipoprotein (LDL) cholesterol” value (NASH patients [1]; long term administration) is given as “increased”.
For `O=C(O)c1ccnc(N2CC(O)(c3ccc(OCc4c(-c5c(Cl)cccc5Cl)noc4C4CC4)cc3Cl)C2)c1` [cilofexor], the “LDL uptake by hepatocytes” value (human hepatocytes) was “reduce the LDL uptake by hepatocytes in a dose dependent manner”.
For `O=C(O)c1cc(F)c2nc(N3C4CCC3CC(OCc3c(-c5ccccc5OC(F)(F)F)noc3C3CC3)C4)sc2c1` [Tropifexor, 2-[(1R,3r,5S)-3-({5-cyclopropyl-3-[2-(trifluoromethoxy)phenyl]-1,2-oxazol-4-yl}methoxy)-8-azabicyclo[3.2.1]octan-8-yl]-4-fluoro-1,3-benzothiazole-6-carboxylic acid], the “lipid changes that led to treatment discontinuation or dose reduction” value ([2]; 140 μg and 200 μg, 12 weeks) was “None”, the “low density lipoprotein-cholesterol (LDL-C)” value ([2]; 140 μg and 200 μg, 12 weeks) was “dose-related increase” and the “LS mean absolute change (SE) in ALT from baseline to Week 12” value ([2]; 140 μg once daily, N = 50) was −20.1 (4.57) U/L. The “LS mean absolute change (SE) in GGT from baseline to Week 12” value ([2]; 140 μg once daily, N = 50) was −39.2 (3.70) U/L, the “LS mean absolute change (SE) in body weight from baseline to Week 12” value ([2]; 140 μg once daily, N = 50) was −2.46 (0.38) kg and the “frequency of serious adverse events” value ([2]; 140 μg, 200 μg and placebo groups) was “low and comparable across groups”. The “treatment discontinuation rate due to pruritus” value ([2]; 140 μg, n=1) was 2%, the “prespecified endpoints at week 12” value ([2]; 200 μg) was “met” and the “LS mean absolute change (SE) in ALT from baseline to Week 12” value ([2]; 200 μg once daily, N = 51) was −23.6 (4.48) U/L. For the same compound, the “LS mean absolute change (SE) in GGT from baseline to Week 12” value ([2]; 200 μg once daily, N = 51) was −40.9 (3.62) U/L, the “LS mean absolute change (SE) in body weight from baseline to Week 12” value ([2]; 200 μg once daily, N = 51) was −3.20 (0.37) kg and the “treatment discontinuation rate due to pruritus” value ([2]; 200 μg, n=3) was 6%. The “patients with pruritus whose events were of mild (Grade 1) severity” value ([2]; both Tropifexor groups (140 μg, 200 μg)) was > 60%, the “ALT, HFF, and body weight” value [2, 4] was “robust and dose-dependent decreases” and the safety and tolerability [2, 4] was “good safety and tolerability”. The “biologic activity (GGT)” value (NASH patients [3]; 10 to 90 μg daily for 12 weeks) was “clear dose response”, the “target engagement (FGF19)” value (NASH patients [3]; 10 to 90 μg daily for 12 weeks) was “clear dose response” and the “efficacy based on biomarkers” value (NASH patients [3]; 60 and 90 μg, Week 12) was “anti-inflammatory and anti-steatotic efficacy”. For the same compound, the “ALT compared to placebo” value (NASH patients [3]; [5]) was “reduced”, the “hepatic fat fraction compared to placebo” value (NASH patients [3]; [5]) was “reduced” and the tolerability (NASH patients [3]; up to 90 μg daily) was “generally well tolerated”.
